One data set concerns normal cells. To be noted: cited from earlier work.
For data set [1] the following is noted: zinc salt; cited from earlier work.
Another data set has as its system viruses. To be noted: cited from earlier work.
The test system of a further data set is inflammation. The text has this:
Another exemplary metal complex is disodium monozinc (II) citrate dihydrate, sold under the tradename MZC™ by National Research Laboratories, Ltd. of Cincinnati, Ohio.

`CC(=O)[O-].CC(=O)[O-].[Zn+2]` [zinc acetate]: the “toxicity to normal cells” value in the data set with normal cells is given as “quite toxic to normal cells”. Besides, in data set [1], the pH result is “about 5”. Further, the toxicity to viruses entry in the data set on viruses was “very toxic to viruses”.
With “disodium monozinc (II) citrate dihydrate [MZC]”, the anti-inflammatory performance entry in the data set with inflammation is “dramatic anti-inflammatory performance”.
